Experimental data reported in the supplement of paper PMC10307832.

Columns and labels:
Experiment in all cases: relative viability (nuclei count vs DMSO), 5 days (fraction); higher = more cells survive
[1] = compound: CC1=C(N=C(N=C1N)[C@H](CC(=O)N)NC[C@@H](C(=O)N)N)C(=O)N[C@@H]([C@H](C2=CN=CN2)OC3C(C(C(C(O3)CO)O)O)OC4C(C(C(C(O4)CO)O)OC(=O)N)O)C(=O)N[C@H](C)[C@H]([C@H](C)C(=O)N[C@@H]([C@@H](C)O)C(=O)NCCC5=NC(=CS5)C6=NC(=CS6)C(=O)NCCC[S+](C)C)O [Bleomycin] + COc1cccc2cc(-c3nc([C@H]4CC[C@H](C(=O)O)CC4)n4ncnc(N)c34)[nH]c12 [OSI-027] (partner 0.5 µM); conditions: main component drawn
Summary of the method: (§1)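 Relative viability divides the nuclei count in treated wells by that in vehicle wells. Lung cancer cell lines were seeded in 1536-well plates, dosed by pin tool the next day, and fixed and stained after 5 days in one step with final 0.05% Triton X-100, 1% formaldehyde and 1 ug/ml Hoechst. Dosing was a single drug or a fixed anchor-drug dose plus five library-drug doses (not always all listed) in √10 steps, and values are medians of duplicate plates imaged at 4×.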

[2] = compound: CC1=C(N=C(N=C1N)[C@H](CC(=O)N)NC[C@@H](C(=O)N)N)C(=O)N[C@@H]([C@H](C2=CN=CN2)OC3C(C(C(C(O3)CO)O)O)OC4C(C(C(C(O4)CO)O)OC(=O)N)O)C(=O)N[C@H](C)[C@H]([C@H](C)C(=O)N[C@@H]([C@@H](C)O)C(=O)NCCC5=NC(=CS5)C6=NC(=CS6)C(=O)NCCC[S+](C)C)O [Bleomycin] + Cc1cc(Nc2cc(N3CCN(C)CC3)nc(Sc3ccc(NC(=O)C4CC4)cc3)n2)n[nH]1 [Tozasertib] (partner 0.1 µM); conditions: main component drawn
Summary of the method: as §1

[3] = compound: CC1=C(N=C(N=C1N)[C@H](CC(=O)N)NC[C@@H](C(=O)N)N)C(=O)N[C@@H]([C@H](C2=CN=CN2)OC3C(C(C(C(O3)CO)O)O)OC4C(C(C(C(O4)CO)O)OC(=O)N)O)C(=O)N[C@H](C)[C@H]([C@H](C)C(=O)N[C@@H]([C@@H](C)O)C(=O)NCCC5=NC(=CS5)C6=NC(=CS6)C(=O)NCCC[S+](C)C)O [Bleomycin] + NC(=O)Nc1cc(-c2cccc(F)c2)sc1C(=O)N[C@H]1CCCNC1 [AZD7762] (partner 0.2 µM); conditions: main component drawn
Summary of the method: as §1

[4] = compound: COc1cc([C@@H]2c3cc4c(cc3[C@@H](O[C@@H]3O[C@@H]5CO[C@@H](C)O[C@H]5[C@H](O)[C@H]3O)[C@H]3COC(=O)[C@H]23)OCO4)cc(OC)c1O [Etoposide] + Cc1nc(NC(=O)N2CCC[C@H]2C(N)=O)sc1-c1ccnc(C(C)(C)C(F)(F)F)c1 [Alpelisib] (partner 2 µM)
Summary of the method: as §1

Cell Line | relative viability ([1]; first compound 0.01 µM) | relative viability ([1]; first compound 0.03162 µM) | relative viability ([1]; first compound 0.1 µM) | relative viability ([1]; first compound 0.3162 µM) | relative viability ([1]; first compound 1 µM) | relative viability ([2]; first compound 0.01 µM) | relative viability ([2]; first compound 0.03162 µM) | relative viability ([2]; first compound 0.1 µM) | relative viability ([2]; first compound 0.3162 µM) | relative viability ([2]; first compound 1 µM) | relative viability ([3]; first compound 0.01 µM) | relative viability ([3]; first compound 0.03162 µM) | relative viability ([3]; first compound 0.1 µM) | relative viability ([3]; first compound 0.3162 µM) | relative viability ([3]; first compound 1 µM) | relative viability ([4]; first compound 0.01 µM) | relative viability ([4]; first compound 0.03162 µM) | relative viability ([4]; first compound 0.1 µM) | relative viability ([4]; first compound 0.3162 µM) | relative viability ([4]; first compound 1 µM)
NCI-H2342 | 0.676 | 0.634 | 0.598 | 0.507 | 0.511 | 0.537 | 0.522 | 0.493 | 0.432 | 0.445 | 0.5 | 0.611 | 0.495 | 0.589 | 0.42 |  |  |  |  | 
SK-MES-1 | 0.506 | 0.588 | 0.57 | 0.262 | 0.16 | 0.531 | 0.542 | 0.35 | 0.15 | 0.134 |  |  |  |  |  | 0.746 | 0.957 | 0.496 | 0.518 | 0.249
NCI-H2023 | 0.297 | 0.328 | 0.284 | 0.183 | 0.111 | 0.237 | 0.283 | 0.222 | 0.116 | 0.109 |  |  |  |  |  | 0.597 | 0.615 | 0.543 | 0.388 | 0.138
SK-LU-1 | 0.338 | 0.417 | 0.366 | 0.272 | 0.206 | 0.295 | 0.35 | 0.363 | 0.235 | 0.215 |  |  |  |  |  | 0.781 | 0.875 | 0.648 | 0.299 | 0.233
NCI-H1703 |  |  |  |  |  |  |  |  |  |  | 0.131 | 0.139 | 0.128 | 0.122 | 0.114 | 0.406 | 0.367 | 0.31 | 0.287 | 0.255
NCI-H1792 | 0.728 | 0.863 | 0.649 | 0.459 | 0.338 |  |  |  |  |  | 0.615 | 0.635 | 0.716 | 0.253 | 0.141 | 0.61 | 0.415 | 0.374 | 0.549 | 0.302
Calu-6 |  |  |  |  |  |  |  |  |  |  |  |  |  |  |  | 0.837 | 1.08 | 0.798 | 0.709 | 0.338
SW 1573 | 0.566 | 0.407 | 0.382 | 0.258 | 0.169 | 0.141 | 0.184 | 0.17 | 0.129 | 0.161 |  |  |  |  |  | 0.6 | 0.857 | 0.55 | 0.404 | 0.223
NCI-H2228 | 0.473 | 0.467 | 0.534 | 0.264 | 0.164 | 0.216 | 0.248 | 0.218 | 0.12 | 0.137 |  |  |  |  |  | 0.864 | 1.01 | 0.713 | 0.442 | 0.224
NCI-H2009 | 0.606 | 0.609 | 0.637 | 0.501 | 0.41 | 0.717 | 0.789 | 0.701 | 0.424 | 0.351 |  |  |  |  |  | 1.12 | 1.18 | 1.19 | 1.06 | 0.388
COR-L23 | 0.566 | 0.696 | 0.415 | 0.139 | 0.122 | 0.169 | 0.156 | 0.128 | 0.102 | 0.104 |  |  |  |  |  | 0.543 | 0.891 | 0.771 | 0.461 | 0.219
NCI-H1299 |  |  |  |  |  |  |  |  |  |  |  |  |  |  |  | 1.04 | 1.04 | 1.14 | 1.02 | 0.872
NCI-H661 | 0.632 | 0.683 | 0.4 | 0.23 | 0.235 | 0.366 | 0.359 | 0.36 | 0.374 | 0.35 |  |  |  |  |  | 0.995 | 0.61 | 0.413 | 0.388 | 0.3
NCI-H1650 | 0.468 | 0.332 | 0.227 | 0.171 | 0.151 | 0.307 | 0.234 | 0.213 | 0.189 | 0.178 |  |  |  |  |  |  |  |  |  | 
COR-L 105 | 0.591 | 0.567 | 0.639 | 0.339 | 0.377 | 0.31 | 0.337 | 0.33 | 0.325 | 0.279 |  |  |  |  |  | 1.08 | 1.06 | 1.12 | 0.807 | 0.56
ChaGo-K-1 | 0.46 | 0.536 | 0.5 | 0.302 | 0.179 | 0.221 | 0.214 | 0.23 | 0.164 | 0.192 | 0.785 | 0.824 | 0.808 | 0.692 | 0.504 |  |  |  |  | 
NCI-H520 | 0.272 | 0.299 | 0.21 | 0.208 | 0.198 | 0.412 | 0.422 | 0.486 | 0.33 | 0.358 |  |  |  |  |  | 0.873 | 0.925 | 0.965 | 0.836 | 0.906
NCI-H1648 | 0.274 |  | 0.257 | 0.246 | 0.274 | 0.383 |  | 0.401 | 0.405 | 0.379 | 0.623 | 0.716 | 0.512 | 0.373 | 0.375 |  |  |  |  | 
NCI-H1563 | 0.67 | 0.806 | 0.657 | 0.577 | 0.581 |  |  |  |  |  |  |  |  |  |  | 0.855 | 0.918 | 0.868 | 0.588 | 0.557
A549 |  |  |  |  |  |  |  |  |  |  |  |  |  |  |  | 0.737 | 0.793 | 0.375 | 0.224 | 0.0497
NCI-H522 | 0.662 | 0.619 | 0.593 | 0.419 | 0.432 | 0.538 | 0.542 | 0.504 | 0.418 | 0.346 | 0.76 | 0.796 | 0.65 | 0.519 | 0.468 |  |  |  |  | 
NCI-H1623 | 0.406 | 0.432 | 0.464 | 0.363 | 0.322 | 0.393 | 0.427 | 0.417 | 0.301 | 0.32 |  |  |  |  |  |  |  |  |  | 
IA-LM |  |  |  |  |  |  |  |  |  |  |  |  |  |  |  | 0.773 | 0.815 | 0.477 | 0.645 | 0.552
EBC-1 |  |  |  |  |  |  |  |  |  |  |  |  |  |  |  | 0.841 | 0.909 | 0.452 | 0.75 | 0.38
